± gives the expanded uncertainty stated by the source.
What was measured:
[1] = Crystal
[2] = Solid-liquid equilibrium temperature; settings: Crystal

Structure (SMILES): CCCCCCCCCCCC(=O)O [dodecanoic acid]
- Normal melting temperature [1]: 43.03 ± 1.2 °C
- Solid-liquid equilibrium temperature ([2]; 20000 kPa): 320.6 ± 1.2 K
- Solid-liquid equilibrium temperature ([2]; 40000 kPa): 325.17 ± 1.2 K
- Solid-liquid equilibrium temperature ([2]; 60000 kPa): 329.76 ± 1.2 K
- Solid-liquid equilibrium temperature ([2]; 70000 kPa): 331.86 ± 1.2 K
- Solid-liquid equilibrium temperature ([2]; 80000 kPa): 334.1 ± 1.2 K
- Solid-liquid equilibrium temperature ([2]; 90000 kPa): 336.1 ± 1.2 K

Structure (SMILES): CCCCCCCC(=O)O [octanoic acid]
- Normal melting temperature [1]: 16.71 ± 1.2 °C
- Solid-liquid equilibrium temperature ([2]; 20000 kPa): 294.52 ± 1.2 K
- Solid-liquid equilibrium temperature ([2]; 40000 kPa): 299.35 ± 1.2 K
- Solid-liquid equilibrium temperature ([2]; 60000 kPa): 303.85 ± 1.2 K
- Solid-liquid equilibrium temperature ([2]; 80000 kPa): 308.09 ± 1.2 K
- Solid-liquid equilibrium temperature ([2]; 90000 kPa): 309.98 ± 1.2 K

Structure (SMILES): CCCCCCCCCCCCCC(=O)O [tetradecanoic acid]
- Normal melting temperature [1]: 54.4 ± 1.2 °C
- Solid-liquid equilibrium temperature ([2]; 20000 kPa): 332.3 ± 1.2 K
- Solid-liquid equilibrium temperature ([2]; 40000 kPa): 337.25 ± 1.2 K
- Solid-liquid equilibrium temperature ([2]; 60000 kPa): 342.31 ± 1.2 K
- Solid-liquid equilibrium temperature ([2]; 70000 kPa): 344.68 ± 1.2 K
- Solid-liquid equilibrium temperature ([2]; 80000 kPa): 346.55 ± 1.2 K
- Solid-liquid equilibrium temperature ([2]; 90000 kPa): 348.93 ± 1.2 K

— the NIST ThermoML archive (doi:10.1016/j.fluid.2007.02.007)
